Experimental data published in PubChem BioAssay AID504606 (National Center for Advancing Translational Sciences (NCATS), 2011).
≈ marks a conversion by molar mass, not a printed value.

Test system: kinetic aqueous solubility, PBS pH 7.4, LC-UV/MS
Assay: Inhibitors of HPGD: Aqueous Solubility Profiling
Details: hits give high values

solubility	SMILES
35.9 µM (≈ 11 µg/mL)	Cc1cc(-c2nnc3n2CCCCC3)c(C)n1-c1ccccc1
3 µM (≈ 0.958 µg/mL)	Cc1cccc(-n2cnc3cc(C(=O)N4CCCCC4)ccc32)c1
